Values quoted from earlier work, collected in publication PMC4047818 (Biochemistry, 2014).
Read-outs that look alike come from different tables or passages of the source. Each block holds one substance with its values, some of them ahead of it.

Experiments:
[1] = system: insulin receptor; set-up: method as in 24 sources, one per row (each row's own in cited_ref): ref [58] = [58]; PMID 18048361; doi:10.1074/jbc.M709220200; Gauguin L.; Klaproth B.; Sajid W.; Andersen A. S.; McNeil K. A.; Forbes B. E.; De Meyts P. ( 2008 ) Structural basis for the lower affinity of the insulin-like growth factors for the insulin rec ||| ref [59] = [59]; PMID 9148904; doi:10.1074/jbc.272.20.12978; Kristensen C.; Kjeldsen T.; Wiberg F. C.; Schaffer L.; Hach M.; Havelund S.; Bass J.; Steiner D. F.; Andersen A. S. ( 1997 ) Alanine scanning mutagenesis of insulin . J. Biol. Chem. 272 , 1297 ||| ref [33] = [33]; PMID 17316105; doi:10.1089/dia.2006.0035; Becker R. H. A. ( 2007 ) Insulin glulisine complementing basal insulins: A review of structure and activity . Diabetes Technol. Ther. 9 , 109 – 121 . 17316105 10.1089/dia.2006.0035 ||| ref [60],[61] = [60]; PMID 3541911; doi:10.1042/bj2380345; Bajaj M.; Blundell T. L.; Horuk R.; Pitts J. E.; Wood S. P.; Gowan L. K.; Schwabe C.; Wollmer A.; Gliemann J.; Gammeltoft S. ( 1986 ) Coypu Insulin: Primary Structure, Conformation and Biolog || [61]; PMID 11445250; doi:10.1016/s0196-9781(01)00423-5; Conlon J. M. ( 2001 ) Evolution of the insulin molecule: Insights into structure-activity and phylogenetic relationships . Peptides 22 , 1183 – 1193 . 11445250 10.1016/s0196-9781(01)00423-5 ||| ref [66] = [66]; PMID 2268358; doi:10.1016/s0006-291x(05)80882-4; Burke G. T.; Hu S. Q.; Ohta N.; Schwartz G. P.; Zong L.; Katsoyannis P. G. ( 1990 ) Superactive insulins . Biochem. Biophys. Res. Commun. 173 , 982 – 987 . 2268358 10.1016/s0006-291x(05)80882-4 ||| ...; conditions: for relative affinity: insulin = 100
[2] = target: insulin receptor (Homo sapiens) (UniProt P06213); experiment: radioligand binding
UniProt P06213, sequence (P06213 763-1382): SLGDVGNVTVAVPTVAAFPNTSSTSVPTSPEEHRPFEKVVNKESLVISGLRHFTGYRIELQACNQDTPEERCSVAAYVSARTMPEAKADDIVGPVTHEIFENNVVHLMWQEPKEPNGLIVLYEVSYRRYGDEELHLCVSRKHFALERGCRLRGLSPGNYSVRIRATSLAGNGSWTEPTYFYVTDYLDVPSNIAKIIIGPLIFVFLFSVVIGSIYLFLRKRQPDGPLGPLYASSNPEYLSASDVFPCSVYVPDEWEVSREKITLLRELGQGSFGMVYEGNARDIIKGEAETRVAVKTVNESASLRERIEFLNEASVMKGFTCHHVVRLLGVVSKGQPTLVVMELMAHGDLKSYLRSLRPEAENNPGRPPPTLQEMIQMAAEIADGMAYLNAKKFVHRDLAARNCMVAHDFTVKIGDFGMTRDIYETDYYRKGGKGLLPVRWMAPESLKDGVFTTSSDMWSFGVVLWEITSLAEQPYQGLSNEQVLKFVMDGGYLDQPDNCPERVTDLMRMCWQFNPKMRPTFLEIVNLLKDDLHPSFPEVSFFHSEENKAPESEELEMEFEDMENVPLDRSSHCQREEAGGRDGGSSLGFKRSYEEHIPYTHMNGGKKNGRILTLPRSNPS

insulin, sequence (P01308 90-110): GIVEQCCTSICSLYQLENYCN

Substance: DKPwinsulin: monomeric insulin analogue containing three substitutions in the B-chain (AspB10, LysB28, ProB29)
- relative affinity ([1]; ref (15)): 160%

Substance: [AlaB1]winsulin: literature insulin analogue, Ala at B1
- relative affinity ([1]; ref (6)): 79%

Substance: [AlaB2]winsulin: literature insulin analogue, Ala at B2
- relative affinity ([1]; ref (6)): 110%

Substance: [AlaB3]-insulin: literature insulin analogue, Ala at B3
- relative affinity ([1]; ref (6)): 134%
- binding affinity ([1]; relative to HI, ref [59]): 134%

Substance: [AlaB4]winsulin: literature insulin analogue, Ala at B4
- relative affinity ([1]; ref (6)): 54%

Substance: [AlaB5]-insulin: literature insulin analogue, Ala at B5
- relative affinity ([1]; ref (9)): 31%

Substance: [AlaB5]DKPwinsulin: DKP-insulin analogue, Ala at B5
- relative affinity ([1]; ref (13)): 129%

Substance: [AlaB6]winsulin: literature insulin analogue, Ala at B6
- relative affinity ([1]; ref (6, 14)): 1.4%

Substance: [ArgB5]winsulin: insulin with naturally occurring ArgB5 mutation
- relative affinity ([1]; ref (10)): 40%

Substance: [AsnB5]winsulin: literature insulin analogue, Asn at B5
- relative affinity ([1]; ref (12)): 46%

Substance: [AspB5]-insulin: literature insulin analogue, Asp at B5
- relative affinity ([1]; ref (12)): 0.4%
- binding affinity ([1]; relative to HI, ref [66]): 0.4%

Substance: [Cys(B4–B10),desB30]-insulin: literature insulin analogue with an additional B4–B10 disulfide bond, desB30
- relative affinity ([1]; ref (8)): 132%
- affinity ([1]; relative to HI, ref [31]): 130%

Substance: [GlyB6]winsulin: literature insulin analogue, Gly at B6
- relative affinity ([1]; ref (14)): 0.052%

Substance: [LeuB8,desB30]winsulin: literature insulin analogue, Leu at B8, desB30
- relative affinity ([1]; ref (18)): < 0.2%

Substance: [MetB6]winsulin: literature insulin analogue, Met at B6
- relative affinity ([1]; ref (14)): 15%

Substance: [PheB6]winsulin: literature insulin analogue, Phe at B6
- relative affinity ([1]; ref (14)): 10%

Substance: [ProB3]-insulin: literature insulin analogue, Pro at B3
- relative affinity ([1]; ref (7)): 54%
- binding affinity ([1]; relative to HI, ref [58]): 54%

Substance: [SerB3]-insulin: literature insulin analogue, Ser at B3
- relative affinity ([1]; ref (7)): 97%
- binding affinity ([1]; relative to HI, ref [58]): 97%

Substance: [SerB8,desB30]winsulin: literature insulin analogue, Ser at B8, desB30
- relative affinity ([1]; ref (18)): 23%
- IR affinity relative to HI ([1]; published analogues, ref Table S5 of the Supporting Information): 23%

Substance: [SerB8]DKPwinsulin: DKP-insulin analogue, Ser at B8
- relative affinity ([1]; ref (15, 17)): 90%

Substance: [ThrB8,desB30]winsulin: literature insulin analogue, Thr at B8, desB30
- relative affinity ([1]; ref (18)): < 0.2%

Substance: [ValB6]winsulin: literature insulin analogue, Val at B6
- relative affinity ([1]; ref (14)): 3.3%

- Kd [2]: 0.3 nM
Substance: insulin (from UniProt P01308)

Substance: insulin glulisine: [LysB3,GluB29]-insulin analogue
- affinity ([1]; relative to wild type, ref [33]): wild-type-like affinity
